Changes are numbered by the printed parent chain.

The target of test [1] is Receptor-type tyrosine-protein kinase FLT3 (Homo sapiens) (UniProt P36888). As to the kind of experiment: (§1) Selectivity interaction (KinomeScan (DiscoverX)) EUB0000045b FLT3.
Test [2] relates to T1, Receptor-type tyrosine-protein kinase FLT3 (Homo sapiens), P36888 [D835Y].
T1 sequence (whole entry): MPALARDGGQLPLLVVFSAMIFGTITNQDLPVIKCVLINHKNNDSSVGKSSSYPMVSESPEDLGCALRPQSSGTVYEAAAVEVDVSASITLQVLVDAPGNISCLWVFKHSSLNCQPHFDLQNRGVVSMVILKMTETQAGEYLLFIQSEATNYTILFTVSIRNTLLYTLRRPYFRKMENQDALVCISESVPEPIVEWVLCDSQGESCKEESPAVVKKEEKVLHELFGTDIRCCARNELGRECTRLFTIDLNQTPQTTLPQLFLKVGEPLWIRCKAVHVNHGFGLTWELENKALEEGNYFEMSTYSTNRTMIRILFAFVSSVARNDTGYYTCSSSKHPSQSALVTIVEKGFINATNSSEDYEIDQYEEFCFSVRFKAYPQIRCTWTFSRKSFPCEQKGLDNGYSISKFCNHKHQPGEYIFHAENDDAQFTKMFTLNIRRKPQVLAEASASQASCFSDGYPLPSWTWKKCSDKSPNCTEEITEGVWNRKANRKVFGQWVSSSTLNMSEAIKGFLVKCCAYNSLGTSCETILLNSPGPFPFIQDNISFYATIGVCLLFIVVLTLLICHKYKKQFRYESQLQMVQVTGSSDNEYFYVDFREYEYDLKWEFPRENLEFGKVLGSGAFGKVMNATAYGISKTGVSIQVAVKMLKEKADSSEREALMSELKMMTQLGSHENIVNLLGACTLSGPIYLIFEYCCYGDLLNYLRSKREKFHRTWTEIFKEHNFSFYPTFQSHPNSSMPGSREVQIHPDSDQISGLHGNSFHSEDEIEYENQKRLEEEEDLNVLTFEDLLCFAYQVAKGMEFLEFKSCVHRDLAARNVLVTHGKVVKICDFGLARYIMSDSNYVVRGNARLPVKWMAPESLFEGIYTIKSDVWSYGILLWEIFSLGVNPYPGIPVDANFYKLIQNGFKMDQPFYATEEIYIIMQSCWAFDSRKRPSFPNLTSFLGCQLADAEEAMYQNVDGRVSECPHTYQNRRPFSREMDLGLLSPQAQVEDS
Described as §1.

In test [3] the test system is T2, Receptor-type tyrosine-protein kinase FLT3 (Homo sapiens), P36888 [K663Q].
T2 sequence (whole entry): T1 sequence (whole entry) with K663Q, Y835D
Described as §1.

Test [4] deals with T3, Receptor-type tyrosine-protein kinase FLT3 (Homo sapiens), P36888 [D835H].
T3 sequence (whole entry): T1 sequence (whole entry) with Y835H
Described as §1.

In the case of `C=CC(=O)Nc1cc(-n2c(=O)ccc3cnc4ccc(-c5ccc(NS(C)(=O)=O)cc5)cc4c32)ccc1C`, the % of control was determined as 80% in test [1] (at 1 µM); 81% in test [1] (at 10 µM); 100% in test [2] (at 1 µM); 100% in test [2] (at 10 µM); 100% in test [3] (at 1 µM); 100% in test [3] (at 10 µM). The % of control in test [4] (at 1 µM) stood at 89%; in test [4] (at 10 µM) it was 100%.

These data come from ChEMBL document CHEMBL5465560, “Selectivity Literature for EUbOPEN Chemogenomic Library” (2024).
